Values of other authors as cited in paper PMC2817966 (Journal of chemical information and modeling, 2009).

What was measured:
[1] = test system: WT HIV-1
[2] = test system: Tyr181Cys variant

Compound	potency towards WT HIV-1 [1]	activity towards a Y181C variant [2]	IC50 ([1]; read-out: IC50 against WT HIV)	IC50 ([2]; read-out: IC50 against Tyr181Cys variant)
CC(Sc1nc(N)cc(Cl)n1)c1cc2ccoc2cn1 (single isomer, unassigned; (-)) [PNU142721, (-)-6-Chloro-2-[(1-furo[2,3-c]pyridin-5-ylethyl)thio]-4-pyrimidinamine]	1 nM	1 µM	–	–
Cc1cc(C)cc(Oc2c(CSCc3ccco3)c(C)[nH]c(=O)c2I)c1 [Compound R221239]	–	–	2 nM	5 nM
